pKd: −log10 of the molar value. ≈ marks a conversion by molar mass, not a printed value. Square brackets hold non-standard residues; d marks the D form. Peptide text beside a SMILES is read from it. * marks the point of attachment. ξ: configuration not given here. ξR = N=C(N)NCCCC(N)C(=O)O; βNA = c1ccc2cc(N*)ccc2c1
Key:
E. cloacae ATCC13047 [1] = test: Potentiation of NOV, ERY, CIP in E. cloacae; format: cell-based, Enterobacter cloacae
K. pneumoniae ATCC13883 [2] = test: MIC in K. pneumoniae; format: cell-based, Klebsiella pneumoniae
E. coli WT-pore cells = test: Checkerboard potentiation of novobiocin/erythromycin; format: cell-based, Escherichia coli
K. pneumoniae ATCC13883 [3] = test: Potentiation of NOV, ERY, CIP in K. pneumoniae; format: cell-based, Klebsiella pneumoniae
E. coli ΔtolC = test: MIC, 2-fold broth dilution, efflux-deficient ΔtolC; format: cell-based, Escherichia coli; details: average of two replicates
E. coli ΔtolC-pore = test: MIC, 2-fold broth dilution, ΔtolC-pore; format: cell-based, Escherichia coli; details: average of two replicates
AcrAB−TolC = AcrAB−TolC (Escherichia coli, UniProt P0AE06+P31224); details: steady-state Nile Red accumulation in WT-pore cells with 32 μM vs 0 μM compound
AcrAB−TolC, sequence (P31224 whole entry): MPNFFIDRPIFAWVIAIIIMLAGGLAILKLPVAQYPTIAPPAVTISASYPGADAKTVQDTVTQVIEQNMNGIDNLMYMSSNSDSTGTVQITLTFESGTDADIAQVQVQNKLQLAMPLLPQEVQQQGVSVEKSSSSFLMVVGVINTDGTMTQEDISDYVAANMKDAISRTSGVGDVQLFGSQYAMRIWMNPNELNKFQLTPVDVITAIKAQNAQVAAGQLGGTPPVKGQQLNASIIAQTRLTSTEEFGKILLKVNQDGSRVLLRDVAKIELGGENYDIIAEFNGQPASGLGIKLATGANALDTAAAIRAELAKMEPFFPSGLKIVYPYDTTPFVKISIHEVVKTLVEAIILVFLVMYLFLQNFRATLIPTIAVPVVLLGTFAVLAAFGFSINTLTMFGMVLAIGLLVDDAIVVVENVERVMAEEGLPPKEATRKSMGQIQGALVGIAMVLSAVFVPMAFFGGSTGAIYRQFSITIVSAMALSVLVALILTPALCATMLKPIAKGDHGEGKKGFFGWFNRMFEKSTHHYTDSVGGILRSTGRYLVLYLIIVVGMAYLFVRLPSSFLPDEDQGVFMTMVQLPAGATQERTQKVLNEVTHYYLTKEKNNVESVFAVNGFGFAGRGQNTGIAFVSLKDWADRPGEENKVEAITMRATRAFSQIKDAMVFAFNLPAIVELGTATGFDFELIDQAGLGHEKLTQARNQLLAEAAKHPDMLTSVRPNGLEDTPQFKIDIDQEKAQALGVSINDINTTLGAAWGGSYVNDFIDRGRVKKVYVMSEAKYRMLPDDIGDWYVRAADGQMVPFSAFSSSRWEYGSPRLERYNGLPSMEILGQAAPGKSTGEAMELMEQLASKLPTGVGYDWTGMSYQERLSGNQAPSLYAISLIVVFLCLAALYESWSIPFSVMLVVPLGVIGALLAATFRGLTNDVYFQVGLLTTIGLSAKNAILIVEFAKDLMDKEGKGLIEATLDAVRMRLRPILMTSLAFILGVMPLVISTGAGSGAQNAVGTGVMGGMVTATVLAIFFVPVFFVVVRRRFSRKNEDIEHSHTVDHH
AcrAB−TolC, sequence (P0AE06 25-397): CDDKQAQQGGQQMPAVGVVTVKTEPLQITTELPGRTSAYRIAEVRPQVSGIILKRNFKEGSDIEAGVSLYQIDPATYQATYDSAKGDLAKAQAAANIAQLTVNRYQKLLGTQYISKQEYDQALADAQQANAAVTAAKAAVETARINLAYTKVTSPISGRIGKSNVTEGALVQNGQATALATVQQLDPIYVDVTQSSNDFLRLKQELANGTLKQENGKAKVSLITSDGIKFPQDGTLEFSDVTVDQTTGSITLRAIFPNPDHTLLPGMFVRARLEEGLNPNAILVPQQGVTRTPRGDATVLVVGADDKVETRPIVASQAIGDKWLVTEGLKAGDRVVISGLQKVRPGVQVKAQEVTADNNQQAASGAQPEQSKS
AcrAB−TolC, sequence (P02930 23-493, further chain): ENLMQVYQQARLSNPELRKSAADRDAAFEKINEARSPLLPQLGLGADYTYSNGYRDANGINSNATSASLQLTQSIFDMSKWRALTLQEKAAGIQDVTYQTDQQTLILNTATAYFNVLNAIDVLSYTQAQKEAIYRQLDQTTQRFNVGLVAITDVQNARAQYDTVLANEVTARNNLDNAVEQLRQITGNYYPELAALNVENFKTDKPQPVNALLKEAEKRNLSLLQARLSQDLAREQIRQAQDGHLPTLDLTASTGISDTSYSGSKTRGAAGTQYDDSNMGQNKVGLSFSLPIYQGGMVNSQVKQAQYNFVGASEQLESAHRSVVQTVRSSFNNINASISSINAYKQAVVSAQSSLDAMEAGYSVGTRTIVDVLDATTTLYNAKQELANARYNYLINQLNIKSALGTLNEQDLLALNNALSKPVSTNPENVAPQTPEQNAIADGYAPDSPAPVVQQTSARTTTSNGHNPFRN

A549 cells = test: MTS cytotoxicity assay; format: cell-based, human; details: average of two replicates
AcrA [4] = target: T1, AcrA (Escherichia coli, UniProt P0AE06); details: periplasm of WT-pore cells; trypsin; accumulation of K46-K346 fragment
T1 sequence (P0AE06 25-397): as the sequence (P0AE06 25-397) above

E. coli BW25113 (WT) = test: MIC, 2-fold broth dilution, E. coli WT; format: cell-based, Escherichia coli; details: for MIC: Escherichia coli, BW25113, read-out: MIC WT
E. cloacae ATCC13047 [5] = test: MIC in E. cloacae; format: cell-based, Enterobacter cloacae
E. coli WT-pore = test: MIC, 2-fold broth dilution, hyperporinated WT-pore; format: cell-based, Escherichia coli; details: for MIC: Escherichia coli, read-out: MIC WT-pore
AcrB = AcrB (Escherichia coli, UniProt P31224); details: read-out: KD AcrB; SPR; ref [38] and [47]; cited from earlier work
AcrB, sequence (P31224 whole entry): as the sequence (P31224 whole entry) above

AcrA [6] = target: T1, AcrA; details: read-out: KD AcrA; SPR; ref [38] and [47]; cited from earlier work
[7] = Klebsiella pneumoniae, ATCC13883
[8] = Enterobacter cloacae, ATCC13047

## Cc1cc(N)c2cc(NC(=O)/C=C/c3ccccc3Cl)ccc2n1 [Compound 2]
E. cloacae ATCC13047 [1]
  fold MIC (CIP): 1
  fold MIC (ERY): 8
  fold MIC (NOV): 64
K. pneumoniae ATCC13883 [2]; K. pneumoniae ATCC13883, test compounds, average of two replicates
  MIC: >100 µM
E. coli WT-pore cells; minimum concentration reducing MIC of erythromycin 4-fold
  potentiation MPC4 (ERY): 3.1 µM
E. coli WT-pore cells; minimum concentration reducing MIC of novobiocin 4-fold
  potentiation MPC4 (NOV): 1.56 µM
K. pneumoniae ATCC13883 [3]
  fold MIC (NOV): 64
E. coli ΔtolC
  MIC ΔtolC: 12.5 µM (≈ 4.22 µg/mL)
E. coli ΔtolC-pore
  MIC ΔtolC-pore: 12.5 µM (≈ 4.22 µg/mL)
AcrAB−TolC
  efflux inhibition, SS ratio 32 μM/0 μM: 6.5
A549 cells
  CC50: 10 µM
AcrA [4]
  effect on proteolytic profile of AcrA: did not affect the proteolytic profiles of AcrA
E. coli BW25113 (WT); E. coli WT, average of two replicates
  MIC WT: 200 µM (≈ 67.6 µg/mL)
E. cloacae ATCC13047 [5]; E. cloacae ATCC13047, test compounds, average of two replicates
  MIC: >100 µM
E. coli WT-pore; E. coli hyperporinated WT-pore, average of two replicates
  MIC WT-pore: 100 µM (≈ 33.8 µg/mL)

## CC[C@H]1OC(=O)[C@H](C)[C@@H](O[C@H]2C[C@@](C)(OC)[C@@H](O)[C@H](C)O2)[C@H](C)[C@@H](O[C@@H]2O[C@H](C)C[C@H](N(C)C)[C@H]2O)[C@](C)(O)C[C@@H](C)C(=O)[C@H](C)[C@@H](O)[C@]1(C)O [ERY, erythromycin]
K. pneumoniae ATCC13883 [2]; [7]
  MIC: 400 µg/mL
E. coli ΔtolC
  MIC ΔtolC: 2 µM (≈ 1.47 µg/mL)
E. coli BW25113 (WT)
  MIC: 64 µM (≈ 47 µg/mL)
E. cloacae ATCC13047 [5]; [8]
  MIC: 400 µg/mL
E. coli WT-pore
  MIC: 4 to 8 µM (≈ 2.94 to 5.87 µg/mL)

## NC(N)=NCCCC(NC(=O)[C@@H](N)Cc1ccccc1)C(=O)Nc1ccc2ccccc2c1 (stereo partly shown) [MC] (H-Phe-[ξR]-βNA)
AcrB
  pKd: 3.96

## CO[C@@H]1[C@@H](OC(N)=O)[C@@H](O)[C@H](Oc2ccc3c(O)c(NC(=O)c4ccc(O)c(CC=C(C)C)c4)c(=O)oc3c2C)OC1(C)C [NOV, novobiocin]
K. pneumoniae ATCC13883 [2]; [7]
  MIC: 50 µg/mL
E. coli ΔtolC
  MIC ΔtolC: 0.5 µM (≈ 0.306 µg/mL)
E. coli ΔtolC-pore
  MIC ΔtolC-pore: 0.125 µM (≈ 0.0766 µg/mL)
E. coli BW25113 (WT)
  MIC: 128 µM (≈ 78.4 µg/mL)
E. cloacae ATCC13047 [5]; [8]
  MIC: 400 µg/mL
AcrA [6]
  pKd: 4.40
E. coli WT-pore
  MIC: 32 to 64 µM (≈ 19.6 to 39.2 µg/mL)
